Source: patent publication US10058534B2, “Benzothiophene derivatives and compositions thereof as selective estrogen receptor degraders” (NOVARTIS AG, priority 2013, dated 2018)

Molecular target: ERα (Homo sapiens (Human), UniProt P03372)
Assay: ERα degradation (MCF7 cells), in-cell Western
Format: cell-based
Conditions: MCF7 cells; for % ERα remaining: remaining ERα protein at 10 μM ligand, relative to DMSO control
Procedure: ERα Degradation (MCF7 Cells)
The column titled MCF7 IC50 reports the inflection point of the inhibition of transcription in MCF7 cells as described above. Percentage ERα remaining reports the remaining ERα protein measured at 10 μM concentration of the ligand as described above. The column ERα IC50 reports the inflection point of the degradation in response to the ligand concentration.

[1] = inflection point of the degradation in response to ligand concentration

ERα, sequence (P03372 whole entry): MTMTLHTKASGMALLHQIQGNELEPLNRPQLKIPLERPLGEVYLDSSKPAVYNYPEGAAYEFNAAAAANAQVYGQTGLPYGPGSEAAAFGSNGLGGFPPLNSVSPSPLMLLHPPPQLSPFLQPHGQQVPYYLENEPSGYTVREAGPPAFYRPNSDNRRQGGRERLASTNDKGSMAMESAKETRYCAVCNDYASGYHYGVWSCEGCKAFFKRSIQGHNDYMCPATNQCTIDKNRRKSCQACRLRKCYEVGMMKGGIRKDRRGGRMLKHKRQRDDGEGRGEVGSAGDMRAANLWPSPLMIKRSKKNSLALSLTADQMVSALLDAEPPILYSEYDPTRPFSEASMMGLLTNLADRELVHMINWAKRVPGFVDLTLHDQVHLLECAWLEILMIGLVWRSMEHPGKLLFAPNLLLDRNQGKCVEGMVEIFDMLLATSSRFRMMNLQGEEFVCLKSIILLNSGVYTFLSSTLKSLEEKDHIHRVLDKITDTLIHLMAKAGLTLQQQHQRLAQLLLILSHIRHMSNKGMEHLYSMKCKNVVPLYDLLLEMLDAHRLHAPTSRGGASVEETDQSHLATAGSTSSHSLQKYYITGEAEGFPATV

| Compound | IC50 [1] [nM] | % ERα remaining [%] | DC50 (inflection point of the degradation in response to ligand concentration, read-out: ERα IC50) [nM] |
| --- | --- | --- | --- |
| O=C(O)CCc1ccc(Oc2c(-c3ccc(O)cc3)sc3cc(O)ccc23)cc1 [Example 1, 3-(4-((6-hydroxy-2-(4-hydroxyphenyl)-benzo[b]thiophen-3-yl)oxy)phenyl)propanoic acid] | 31 | 58 | – |
| O=C(O)/C=C/c1ccc(Oc2c(-c3ccc(C(F)(F)F)cc3)sc3cc(O)ccc23)cc1 [Example 3, (E)-3-(4-((6-hydroxy-2-(4-(trifluoromethyl)phenyl)benzo[b]thiophen-3-yl)oxy)phenyl)acrylic acid] | 34 | 18 | – |
| O=C(O)/C=C/c1ccc(Oc2c(-c3ccc(C(F)(F)F)cc3C(F)(F)F)sc3cc(O)ccc23)cc1 [Example 11, (E)-3-(4-((2-(2,4-bis(trifluoromethyl)phenyl)-6-hydroxy-benzo[b]thiophen-3-yl)oxy)phenyl)-acrylic acid] | 1 | 15 | – |
| Cc1noc(C)c1-c1sc2cc(O)ccc2c1Oc1ccc(/C=C/C(=O)O)cc1 [Example 15, (E)-3-(4-((2-(3,5-dimethylisoxazol-4-yl)-6-hydroxybenzo-[b]thiophen-3-yl)oxy)-phenyl)acrylic acid] | 12 | 20 | – |
| CC(C)(C)c1ccc(-c2sc3cc(O)ccc3c2Oc2ccc(/C=C/C(=O)O)cc2)cc1 [Example 22, (E)-3-(4-((2-(4-(tert-butyl)phenyl)-6-hydroxybenzo[b]thiophen-3-yl)oxy)phenyl)-acrylic acid] | 32 | 18 | – |
| Cc1cc(C)cc(-c2sc3cc(O)ccc3c2Oc2ccc(/C=C/C(=O)O)cc2)c1 [Example 23, (E)-3-(4-((2-(3,5-dimethylphenyl)-6-hydroxybenzo[b]thiophen-3-yl)oxy)phenyl)-acrylic acid] | 30 | 22 | – |
| C/C(=C\c1ccc(Oc2c(-c3ccc(O)cc3)sc3cc(O)ccc23)cc1)C(=O)O [Example 28, (E)-3-(4-((6-hydroxy-2-(4-hydroxyphenyl)-benzo[b]thiophen-3-yl)oxy)phenyl)-2-methylacrylic acid] | – | 33 | – |
| O=C(O)/C=C/c1ccc(Oc2c(-c3ccc(O)cc3)sc3cc(O)ccc23)cn1 [Example 29, (E)-3-(5-((6-hydroxy-2-(4-hydroxyphenyl)benzo[b]thiophen-3-yl)oxy)pyridin-2-yl)acrylic acid] | – | 26 | – |
| CN(c1ccc(/C=C/C(=O)O)cc1)c1c(-c2ccc(O)cc2)sc2cc(O)ccc12 [Example 30, (E)-3-(4-((6-hydroxy-2-(4-hydroxyphenyl)benzo[b]thiophen-3-yl)(methyl)amino)phenyl)acrylic acid] | – | 30 | – |
| O=C(/C=C/c1ccc(Oc2c(-c3ccc(O)cc3)sc3cc(O)ccc23)cc1)NCCC(F)(F)F [Example 31, (E)-3-(4-((6-hydroxy-2-(4-hydroxyphenyl)benzo[b]thiophen-3-yl)oxy)phenyl)-N-(3,3,3-trifluoropropyl)acrylamide] | 1 | 45 | – |
| Cc1cc(F)ccc1-c1sc2cc(O)ccc2c1Oc1ccc(/C=C/C(=O)NO)cc1 [Example 32, (E)-3-(4-((2-(4-fluoro-2-methylphenyl)-6-hydroxybenzo [b]thiophen-3-yl)oxy)phenyl)-N-hydroxyacrylamide] | – | 25 | 17 |
| O=C(/C=C/c1ccc(Oc2c(-c3ccc(F)cc3)sc3cc(O)ccc23)cc1)NCCC(F)(F)F [Example 33, (E)-3-(4-((2-(4-fluorophenyl)-6-hydroxybenzo[b]thiophen-3-yl)oxy)phenyl)-N-(3,3,3-trifluoropropyl)-acrylamide] | 10 | 32 | – |
| CCOC(=O)/C=C/c1ccc(Oc2c(-c3ccc(O)cc3)sc3cc(O)ccc23)cc1C [Example 34, (E)-ethyl 3-(4-((6-hydroxy-2-(4-hydroxyphenyl)benzo[b]thiophen-3-yl)oxy)-2-methylphenyl)acrylate] | 112 | 42 | – |
| CCOC(=O)/C=C/c1ccc(Oc2c(-c3ccc(O)cc3)sc3cc(O)ccc23)c(C)c1 [Example 35, (E)-ethyl 3-(4-((6-hydroxy-2-(4-hydroxyphenyl)benzo[b]thiophen-3-yl)oxy)-3-methylphenyl)acrylate] | – | 33 | – |
| COC(=O)/C=C/c1ccc(Oc2c(-c3ccc(F)cc3)sc3cc(O)ccc23)cc1 [Example 36, (E)-methyl 3-(4-((2-(4-fluorophenyl)-6-hydroxybenzo[b]thiophen-3-yl)oxy)phenyl)-acrylate] | – | 28 | – |
| COC(=O)/C=C/c1ccc(Oc2c(-c3ccc(O)cc3)sc3c(F)c(O)c(F)cc23)cc1 [Example 37, (E)-methyl 3-(4-((5,7-difluoro-6-hydroxy-2-(4-hydroxyphenyl)-benzo[b]thiophen-3-yl)oxy)phenyl)acrylate] | – | 38 | – |

Next, values leading:

| IC50 [1] [nM] | % ERα remaining [%] | DC50 (inflection point of the degradation in response to ligand concentration, read-out: ERα IC50) [nM] | Compound |
| --- | --- | --- | --- |
| 0.4 | 13 | – | CC(C)c1ccccc1-c1sc2cc(O)ccc2c1Oc1ccc(/C=C/C(=O)O)cc1 [Example 4, (E)-3-(4-((6-hydroxy-2-(2-isopropylphenyl)benzo[b]thiophen-3-yl)oxy)phenyl)acrylic acid] |
| 4 | 20 | – | Cc1ccccc1-c1sc2cc(O)ccc2c1Oc1ccc(/C=C/C(=O)O)cc1 [Example 5, (E)-3-(4-((6-hydroxy-2-(o-tolyl)benzo-[b]thiophen-3-yl)oxy)-phenyl)acrylic acid] |
| – | 21 | – | O=C(O)/C=C/c1ccc(Oc2c(-c3ccc(Cl)cc3)sc3cc(O)ccc23)cc1 [Example 6, (E)-3-(4-((2-(4-chlorophenyl)-6-hydroxybenzo[b]thiophen-3-yl)oxy)phenyl)-acrylic acid] |
| – | 22 | – | O=C(O)/C=C/c1ccc(Oc2c(-c3cccc(F)c3)sc3cc(O)ccc23)cc1 [Example 7, (E)-3-(4-((2-(3-fluorophenyl)-6-hydroxybenzo[b]thiophen-3-yl)oxy)phenyl)-acrylic acid] |
| 1 | 17 | – | O=C(O)/C=C/c1ccc(Oc2c(-c3ccccc3C(F)(F)F)sc3cc(O)ccc23)cc1 [Example 8, (E)-3-(4-((6-hydroxy-2-(2-(trifluoromethyl)-phenyl)benzo[b]thiophen-3-yl)oxy)phenyl)-acrylic acid] |
| 6 | 18 | – | O=C(O)/C=C/c1ccc(Oc2c(-c3ccccc3Cl)sc3cc(O)ccc23)cc1 [Example 9, (E)-3-(4-((2-(2-chlorophenyl)-6-hydroxybenzo[b]thiophen-3-yl)oxy)phenyl)-acrylic acid] |
| 5 | 17 | – | Cc1cc(C(F)(F)F)ccc1-c1sc2cc(O)ccc2c1Oc1ccc(/C=C/C(=O)O)cc1 [Example 10, (E)-3-(4-((6-hydroxy-2-(2-methyl-4-(trifluoromethyl)phenyl)benzo[b]thiophen-3-yl)oxy)phenyl)acrylic acid] |
| 2 | 14 | – | Cc1cccc(-c2sc3cc(O)ccc3c2Oc2ccc(/C=C/C(=O)O)cc2)c1C [Example 13, (E)-3-(4-((2-(2,3-dimethylphenyl)-6-hydroxybenzo[b]thiophen-3-yl)oxy)phenyl)-acrylic acid] |
| 6 | 15 | – | Cc1ccc(C)c(-c2sc3cc(O)ccc3c2Oc2ccc(/C=C/C(=O)O)cc2)c1 [Example 14, (E)-3-(4-((2-(2,5-dimethylphenyl)-6-hydroxybenzo[b]thiophen-3-yl)oxy)phenyl)-acrylic acid] |
| 6 | 26 | – | Cc1c(O)cccc1-c1sc2cc(O)ccc2c1Oc1ccc(/C=C/C(=O)O)cc1 [Example 16, (E)-3-(4-((6-hydroxy-2-(3-hydroxy-2-methyl-phenyl)benzo[b]thiophen-3-yl)oxy)phenyl)-acrylic acid] |
| 1 | 23 | – | CCc1ccccc1-c1sc2cc(O)ccc2c1Oc1ccc(/C=C/C(=O)O)cc1 [Example 18, (E)-3-(4-((2-(2-ethylphenyl)-6-hydroxybenzo[b]thiophen-3-yl)oxy)phenyl)-acrylic acid] |
| 7 | 19 | – | CC(=O)c1ccccc1-c1sc2cc(O)ccc2c1Oc1ccc(/C=C/C(=O)O)cc1 [Example 19, (E)-3-(4-((2-(2-acetylphenyl)-6-hydroxybenzo[b]thiophen-3-yl)oxy)phenyl)-acrylic acid] |
| 1 | 22 | – | CC(C)(C)c1ccccc1-c1sc2cc(O)ccc2c1Oc1ccc(/C=C/C(=O)O)cc1 [Example 20, (E)-3-(4-((2-(2-(tert-butyl)phenyl)-6-hydroxybenzo[b]thiophen-3-yl)oxy)phenyl)-acrylic acid] |
| 15 | 22 | – | O=C(O)/C=C/c1ccc(Oc2c(-c3ccccc3[N+](=O)[O-])sc3cc(O)ccc23)cc1 [Example 21, (E)-3-(4-((6-hydroxy-2-(2-nitrophenyl)-benzo[b]thiophen-3-yl)oxy)phenyl)-acrylic acid] |
| 6 | 22 | – | C[C@H](O)c1ccccc1-c1sc2cc(O)ccc2c1Oc1ccc(/C=C/C(=O)O)cc1 [Example 25, (S,E)-3-(4-((6-hydroxy-2-(2-(1-hydroxyethyl)phenyl)benzo[b]thiophen-3-yl)oxy)phenyl)acrylic acid] |
| 21 | 18 | – | COc1ccc(-c2sc3cc(O)ccc3c2Oc2ccc(/C=C/C(=O)O)cc2)cc1 [Example 26, (E)-3-(4-((6-hydroxy-2-(4-methoxyphenyl)benzo[b]thiophen-3-yl)oxy)phenyl)acrylic acid] |
| 85 | 21 | – | O=C(O)/C=C/c1ccc(Oc2c(-c3ccc(C(F)F)cc3)sc3cc(O)ccc23)cc1 [Example 27, (E)-3-(4-((2-(4-(difluoromethyl)phenyl)-6-hydroxybenzo[b]thiophen-3-yl)oxy)phenyl)acrylic acid] |
